The results in this text go back to ChEMBL document CHEMBL5365526 (J Med Chem, 2023).

Assay [1] can be described thus: Inhibition of M2 macrophage development in PMA-differentiated human THP-1 cells assessed as CD206 surface expression at 5 uM incubated for 48 hrs by flow cytometry (reference value: 53.4%). The format is functional. Also noted: scale not given: the % may be the effect or the level left.
For the next assay, the system named is A-375. Kind of assay: Inhibition of cell colony formation in human A-375 cells at 5 uM cultured in 8% FBS and measured after 7 days in presence of LPS by crystal violet staining based analysis. In kind it is functional. The conditions noted are these: time 7.0 day.
Another assay concerns HCT-116. Kind of assay: Inhibition of cell colony formation in human HCT-116 cells at 5 uM cultured in 8% FBS and measured after 7 days in presence of LPS by crystal violet staining based analysis. The format is functional. The conditions noted are these: time 7.0 day.
Assay [2] concerns the target von Hippel-Lindau disease tumor suppressor/Mitogen-activated protein kinase 7 (Homo sapiens, UniProt Q13164+P40337). Put plainly: PROTAC activity at VHL/ERK5 in human A-375 cells assessed as induction of ERK5 degradation at 100 nM incubated for 24 hrs by western blot analysis. In kind it is cell-based. Background: In western blotting, separated proteins are transferred to a membrane and probed.

The target in assay [3] is Mitogen-activated protein kinase 7 (Homo sapiens, UniProt Q13164). Kind of assay: Inhibition of ERK5 (unknown origin) by ADP-Glo kinase assay.
Chain of Mitogen-activated protein kinase 7 (Q13164 whole entry): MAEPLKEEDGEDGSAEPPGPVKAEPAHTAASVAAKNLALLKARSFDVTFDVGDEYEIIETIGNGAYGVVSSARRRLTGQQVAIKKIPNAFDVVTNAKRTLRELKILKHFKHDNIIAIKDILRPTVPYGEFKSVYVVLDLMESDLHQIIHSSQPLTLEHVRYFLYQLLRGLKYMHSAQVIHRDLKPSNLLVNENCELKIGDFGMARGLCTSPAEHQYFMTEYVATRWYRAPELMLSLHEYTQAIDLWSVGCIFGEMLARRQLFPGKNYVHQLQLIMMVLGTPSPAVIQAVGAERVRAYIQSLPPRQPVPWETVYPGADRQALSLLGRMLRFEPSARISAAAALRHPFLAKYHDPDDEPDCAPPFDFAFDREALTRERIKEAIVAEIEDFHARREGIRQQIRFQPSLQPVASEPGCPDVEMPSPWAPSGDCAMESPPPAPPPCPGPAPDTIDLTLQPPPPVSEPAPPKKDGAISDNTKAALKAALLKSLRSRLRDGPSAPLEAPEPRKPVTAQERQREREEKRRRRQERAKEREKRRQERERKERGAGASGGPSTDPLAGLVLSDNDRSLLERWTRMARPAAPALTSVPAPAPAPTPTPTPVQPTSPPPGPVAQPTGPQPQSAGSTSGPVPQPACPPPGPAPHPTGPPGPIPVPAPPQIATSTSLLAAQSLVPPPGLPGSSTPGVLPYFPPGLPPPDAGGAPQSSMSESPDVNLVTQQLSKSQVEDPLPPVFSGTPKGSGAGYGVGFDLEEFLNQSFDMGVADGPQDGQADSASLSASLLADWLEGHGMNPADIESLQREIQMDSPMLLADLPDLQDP

Activity calls are given as the source filed them. The calls are words filed in the database; no cut-off is given here.

Chain of von Hippel-Lindau disease tumor suppressor/Mitogen-activated protein kinase 7 (P40337 whole entry partner): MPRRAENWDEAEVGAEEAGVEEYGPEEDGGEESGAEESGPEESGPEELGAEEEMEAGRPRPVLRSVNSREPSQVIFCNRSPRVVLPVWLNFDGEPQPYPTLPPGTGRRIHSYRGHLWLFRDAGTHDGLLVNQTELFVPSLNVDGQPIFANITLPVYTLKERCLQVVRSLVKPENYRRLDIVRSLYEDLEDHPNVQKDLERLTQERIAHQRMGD
Chain of von Hippel-Lindau disease tumor suppressor/Mitogen-activated protein kinase 7 (Q13164 2-816 limits assumed): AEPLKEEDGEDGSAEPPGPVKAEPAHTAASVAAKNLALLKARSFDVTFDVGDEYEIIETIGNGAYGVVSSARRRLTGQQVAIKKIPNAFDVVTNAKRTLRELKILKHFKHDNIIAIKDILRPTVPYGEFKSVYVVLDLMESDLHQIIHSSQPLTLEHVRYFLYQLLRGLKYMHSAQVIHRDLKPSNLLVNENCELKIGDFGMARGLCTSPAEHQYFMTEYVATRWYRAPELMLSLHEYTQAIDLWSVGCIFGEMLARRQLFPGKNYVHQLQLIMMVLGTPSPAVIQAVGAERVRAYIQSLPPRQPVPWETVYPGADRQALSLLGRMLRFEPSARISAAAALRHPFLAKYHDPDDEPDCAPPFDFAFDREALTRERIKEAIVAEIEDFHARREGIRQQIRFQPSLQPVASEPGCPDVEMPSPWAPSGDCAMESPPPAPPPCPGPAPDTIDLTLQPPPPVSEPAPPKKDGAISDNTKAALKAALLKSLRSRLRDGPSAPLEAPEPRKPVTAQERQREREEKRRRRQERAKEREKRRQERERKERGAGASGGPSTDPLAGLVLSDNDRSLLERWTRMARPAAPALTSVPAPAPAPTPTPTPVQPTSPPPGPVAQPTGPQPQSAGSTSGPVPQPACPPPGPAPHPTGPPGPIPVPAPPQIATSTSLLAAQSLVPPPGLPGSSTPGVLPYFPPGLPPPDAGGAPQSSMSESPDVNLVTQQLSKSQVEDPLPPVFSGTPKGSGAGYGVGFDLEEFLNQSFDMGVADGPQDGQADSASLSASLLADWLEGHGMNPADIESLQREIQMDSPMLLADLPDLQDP

In the case of `CCOc1cc(N2CCC(O)CC2)ccc1Nc1ncc2c(n1)N(C)c1ccccc1C(=O)N2C`, the Activity in assay [1] came to 44.5%. For the same molecule, the inhibition entry in the assay with A-375 and in the assay with HCT-116 was “Active” in each case. Consider `COc1cc(NC(=O)NCCCCNc2cccc3c2C(=O)N(C2CCC(=O)NC2=O)C3=O)ccc1Nc1ncc2c(n1)N(C)c1ccccc1C(=O)N2C` (centres undefined), for which the outcome in assay [2] was inactive. Consider `COc1cc(N2CCN(CCCCCC(=O)N[C@H](C(=O)N3C[C@H](O)C[C@H]3C(=O)N[C@@H](C)c3ccc(-c4scnc4C)cc3)C(C)(C)C)CC2)ccc1Nc1ncc2c(n1)N(C)c1ccccc1C(=O)N2C`, for which, in assay [2], the outcome was Active. Same read-out and setting: the value for `COc1cc(C(=O)N2CCN(CCCCCC(=O)N[C@H](C(=O)N3C[C@H](O)C[C@H]3C(=O)N[C@@H](C)c3ccc(-c4scnc4C)cc3)C(C)(C)C)CC2)ccc1Nc1ncc2c(n1)N(C)c1ccccc1C(=O)N2C` was “Active”.

What is called IC50 is the concentration that inhibits the measured activity by half. Take `COc1cc(N2CCN(CCCCCCCC(=O)N[C@H](C(=O)N3C[C@H](O)C[C@H]3C(=O)N[C@@H](C)c3ccc(-c4scnc4C)cc3)C(C)(C)C)CC2)ccc1Nc1ncc2c(n1)N(C)c1ccccc1C(=O)N2C`: the outcome in assay [2] was Active. The IC50 in assay [3] amounted to 67.1 nM. For `COc1cc(N2CCN(CCCCCCCCC(=O)N[C@H](C(=O)N3C[C@H](O)C[C@H]3C(=O)N[C@@H](C)c3ccc(-c4scnc4C)cc3)C(C)(C)C)CC2)ccc1Nc1ncc2c(n1)N(C)c1ccccc1C(=O)N2C`, the result in assay [2] was Active. In assay [3], `CCOC(=O)CCCCCCN1CCN(c2ccc(Nc3ncc4c(n3)N(C)c3ccccc3C(=O)N4C)c(OC)c2)CC1` had an IC50 of 27.1 nM. On to `COc1cc(NC(=O)NCCOCCOCCOCCNc2cccc3c2C(=O)N(C2CCC(=O)NC2=O)C3=O)ccc1Nc1ncc2c(n1)N(C)c1ccccc1C(=O)N2C` (centres undefined), for which, in assay [2], the result was inactive. Take `COc1cc(N2CCN(CCCCC(=O)N[C@H](C(=O)N3C[C@H](O)C[C@H]3C(=O)N[C@@H](C)c3ccc(-c4scnc4C)cc3)C(C)(C)C)CC2)ccc1Nc1ncc2c(n1)N(C)c1ccccc1C(=O)N2C`: in assay [2], the outcome was Active. On to `COc1cc(N2CCN(CCCCCCCCCC(=O)N[C@H](C(=O)N3C[C@H](O)C[C@H]3C(=O)N[C@@H](C)c3ccc(-c4scnc4C)cc3)C(C)(C)C)CC2)ccc1Nc1ncc2c(n1)N(C)c1ccccc1C(=O)N2C`, for which, in assay [2], the outcome was Active.

With `COc1cc(NC(=O)CCCCCCCCCCNc2cccc3c2C(=O)N(C2CCC(=O)NC2=O)C3=O)ccc1Nc1ncc2c(n1)N(C)c1ccccc1C(=O)N2C` (centres undefined), the outcome in assay [2] was inactive. As to `COc1cc(N2CCNCC2)ccc1Nc1ncc2c(n1)N(C)c1ccccc1C(=O)N2C`, in assay [3], the IC50 came to 10.1 nM. For `COc1cc(NC(=O)NCCCNc2cccc3c2C(=O)N(C2CCC(=O)NC2=O)C3=O)ccc1Nc1ncc2c(n1)N(C)c1ccccc1C(=O)N2C` (centres undefined), the outcome in assay [2] was inactive. `COc1cc(N2CCN(CCOCCOCCCN[C@H](C(=O)N3C[C@H](O)C[C@H]3C(=O)N[C@@H](C)c3ccc(-c4scnc4C)cc3)C(C)(C)C)CC2)ccc1Nc1ncc2c(n1)N(C)c1ccccc1C(=O)N2C`: in assay [2], the result was Active. Regarding `COc1cc(N2CCN(C(=O)CCCCC#Cc3cccc4c3CN(C3CCC(=O)NC3=O)C4=O)CC2)ccc1Nc1ncc2c(n1)N(C)c1ccccc1C(=O)N2C` (centres undefined), the result in assay [2] was inactive. Still for that read-out and setting: the value for `COc1cc(NC(=O)NCCCCCNc2cccc3c2C(=O)N(C2CCC(=O)NC2=O)C3=O)ccc1Nc1ncc2c(n1)N(C)c1ccccc1C(=O)N2C` (centres undefined) was “inactive”; that for `COc1cc(N2CCC(OCCCCCC(=O)N[C@H](C(=O)N3C[C@H](O)C[C@H]3C(=O)N[C@@H](C)c3ccc(-c4scnc4C)cc3)C(C)(C)C)CC2)ccc1Nc1ncc2c(n1)N(C)c1ccccc1C(=O)N2C` was “Active”. As for `COc1cc(N2CCN(CCOCCNc3cccc4c3C(=O)N(C3CCC(=O)NC3=O)C4=O)CC2)ccc1Nc1ncc2c(n1)N(C)c1ccccc1C(=O)N2C` (centres undefined), the outcome in assay [2] was Active.

For `COc1cc(NC(=O)CNc2cccc3c2C(=O)N(C2CCC(=O)NC2=O)C3=O)ccc1Nc1ncc2c(n1)N(C)c1ccccc1C(=O)N2C` (centres undefined), the outcome in assay [2] was inactive. On to `COc1cc(NC(=O)NCCCCCCNc2cccc3c2C(=O)N(C2CCC(=O)NC2=O)C3=O)ccc1Nc1ncc2c(n1)N(C)c1ccccc1C(=O)N2C` (centres undefined), for which, in assay [2], the outcome was inactive.

As for `COc1cc(N2CCN(CCOCC#Cc3cccc4c3CN(C3CCC(=O)NC3=O)C4=O)CC2)ccc1Nc1ncc2c(n1)N(C)c1ccccc1C(=O)N2C` (centres undefined), the outcome in assay [2] was Active.

With `COc1cc(NC(=O)NCCOCCNc2cccc3c2C(=O)N(C2CCC(=O)NC2=O)C3=O)ccc1Nc1ncc2c(n1)N(C)c1ccccc1C(=O)N2C` (centres undefined), the result in assay [2] was inactive. Turning to `COc1cc(C(=O)N2CCN(C(=O)CCCCC#Cc3cccc4c3CN(C3CCC(=O)NC3=O)C4=O)CC2)ccc1Nc1ncc2c(n1)N(C)c1ccccc1C(=O)N2C` (centres undefined), the result in assay [2] was inactive. The same measure, in the same setting: the value for `COc1cc(N2CCN(CCCCCCCCCCC(=O)N[C@H](C(=O)N3C[C@H](O)C[C@H]3C(=O)N[C@@H](C)c3ccc(-c4scnc4C)cc3)C(C)(C)C)CC2)ccc1Nc1ncc2c(n1)N(C)c1ccccc1C(=O)N2C` was “Active”; that for `COc1cc(NC(=O)NCCOCCOCCNc2cccc3c2C(=O)N(C2CCC(=O)NC2=O)C3=O)ccc1Nc1ncc2c(n1)N(C)c1ccccc1C(=O)N2C` (centres undefined) was “inactive”.

In the case of `COc1cc(NC(=O)CCCCCn2cc(CCNc3cccc4c3C(=O)N(C3CCC(=O)NC3=O)C4=O)nn2)ccc1Nc1ncc2c(n1)N(C)c1ccccc1C(=O)N2C` (centres undefined), the outcome in assay [2] was inactive.
